Results reported in patent US6737383B1, “Herbicidal oxadiazolidines” (priority 1999, dated 2004).

Key:
Italian ryegrass = assay: Test E Italian ryegrass; type: in vivo, Lolium multiflorum; conditions: Preemergence
blackgrass [1] = assay: Test B pre/postemergence blackgrass; type: in vivo, Alopecurus myosuroides
How it was run: (§1)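 Test chemicals in a non-phytotoxic solvent mixture with surfactant were sprayed preemergence onto planted seeds and postemergence onto plants 2 to 18 cm tall (1- to 4-leaf stage). After twelve to sixteen days in a greenhouse, injury was visually rated against untreated controls from 0 (no effect) to 10 (complete control).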

winter wheat [2] = assay: Test E winter wheat; type: in vivo, Triticum aestivum; conditions: Postemergence
How it was run: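 Greenhouse-grown plants are treated (postemergence: 1- to 4-leaf stage, sandy loam/potting mix 60:40), then evaluated visually versus untreated controls some 21 to 28 days later.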

Johnson grass = assay: Test D Johnson grass; type: in vivo, Sorghum halepense; conditions: Preemergence, 0 to 100 scale
How it was run: (§2)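 Weed seeds planted in sandy loam; species kept apart in individual pots or compartments. Preemergence tests: treatment to soil surface within one day. Greenhouse growth, then visual injury scoring at 14–21 days (0–100).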

winter wheat [3] = assay: Test E winter wheat; type: in vivo, Triticum aestivum; conditions: Preemergence
green foxtail = assay: Test E green foxtail; type: in vivo, Setaria viridis; conditions: Preemergence
blackgrass [4] = assay: Test E blackgrass; type: in vivo, Alopecurus myosuroides; conditions: Preemergence
velvetleaf = assay: Test B pre/postemergence velvetleaf; type: in vivo, Abutilon theophrasti
How it was run: as §1

purple nutsedge = assay: Test D purple nutsedge; type: in vivo, Cyperus rotundus; conditions: Preemergence, 0 to 100 scale
How it was run: as §2

wild oat = assay: Test E wild oat; type: in vivo, Avena fatua; conditions: Preemergence, 0 to 100 scale where 0 is no effect and 100 is complete control
bedstraw = assay: Test B pre/postemergence bedstraw; type: in vivo, Galium aparine
How it was run: as §1

Alexandergrass = assay: Test D Alexandergrass; type: in vivo, Brachiaria plantaginea; conditions: Preemergence, 0 to 100 scale
How it was run: as §2

winter barley = assay: Test E winter barley; type: in vivo, Hordeum vulgare; conditions: Preemergence
soybean = assay: Test B pre/postemergence soybean; type: in vivo, Glycine max
How it was run: as §1

[5] = Rate 500 g/ha, 0 to 100 scale where 0 is no effect and 100 is complete control
[6] = Rate 1000 g/ha, 0 to 100 scale where 0 is no effect and 100 is complete control
[7] = Postemergence, Rate 62 g/ha, scale 0 to 10, 0 is no effect, 10 is complete control
[8] = Postemergence, Rate 250 g/ha, scale 0 to 10, 0 no effect, 10 complete control
[9] = Preemergence, Rate 31 g/ha, visual rating, scale 0 to 10 (0 no effect, 10 complete control)
[10] = Preemergence, Rate 62 g/ha, scale 0 to 10, 0 is no effect, 10 is complete control
[11] = Preemergence, Rate 125 g/ha, scale 0 to 10 (0 no effect, 10 complete control)
[12] = Preemergence, Rate 250 g/ha, scale of 0 to 10 where 0 is no effect and 10 is complete control
[13] = Rate 31 g/ha, Postemergence, scale 0 to 10
[14] = Rate 125 g/ha, Postemergence, scale 0 to 10, 0 no effect, 10 complete control
[15] = Rate 16 g/ha, 0 no injury, 100 complete control
[16] = Rate 32 g/ha, 0 no injury, 100 complete control
[17] = Rate 64 g/ha, 0 no injury, 100 complete control
[18] = Rate 125 g/ha, 0 no injury, 100 complete control

## COc1ccccc1-n1c(=O)on(C(=O)N(c2ccc(F)cc2)C(C)C)c1=O [Compound 30]
Italian ryegrass; Rate 250 g/ha, 0 to 100 scale
  Plant response rating, I. Ryegrass: 20
Italian ryegrass; [5]
  Plant response rating, I. Ryegrass: 40
Italian ryegrass; [6]
  Plant response rating, I. Ryegrass: 50
Blackgrass [1]; [7]
  Blackgrass plant response rating: 0
Blackgrass [1]; [8]
  Blackgrass plant response rating: 2
Blackgrass [1]; [9]
  Blackgrass plant response rating: 0
Blackgrass [1]; [10]
  Plant response rating, Blackgrass: 3
Blackgrass [1]; [11]
  Plant response rating, Blackgrass: 3
Blackgrass [1]; [12]
  Plant response rating, Blackgrass: 7
Blackgrass [1]; [13]
  Blackgrass plant response rating: 0
Blackgrass [1]; [14]
  Blackgrass plant response rating: 0
Winter wheat [2]; Rate 250 g/ha, 0 to 100 scale (0 no effect, 100 complete control)
  Plant response rating, Wheat (winter): 0
Winter wheat [2]; Rate 1000 g/ha, 0 to 100 scale, 0 is no effect and 100 is complete control
  Plant response rating, Wheat (winter): 0
Winter wheat [2]; Rate 500 g/ha, 0 to 100 scale, 0 no effect, 100 complete control
  Plant response rating, Wheat (winter): 0
Johnson grass; [15]
  Plant response rating, Johnsongrass: 0
Johnson grass; [16]
  Plant response rating, Johnsongrass: 0
Johnson grass; [17]
  Plant response rating, Johnsongrass: 0
Johnson grass; [18]
  Plant response rating, Johnsongrass: 0
Johnson grass; Rate 250 g/ha
  Plant response rating, Johnsongrass: 0
Johnson grass; Rate 500 g/ha
  Plant response rating, Johnsongrass: 40
Winter wheat [3]; Rate 250 g/ha, 0 to 100 scale
  Plant response rating, Wheat (winter): 0
Winter wheat [3]; [5]
  Plant response rating, Wheat (winter): 0
Winter wheat [3]; [6]
  Plant response rating, Wheat (winter): 0
Green foxtail; Rate 250 g/ha, 0 to 100 scale
  Plant response rating, Green foxtail: 30
Green foxtail; [5]
  Plant response rating, Green foxtail: 60
Green foxtail; [6]
  Plant response rating, Green foxtail: 60
Blackgrass [4]; Rate 250 g/ha, 0 to 100 scale
  Plant response rating, Blackgrass: 30
Blackgrass [4]; [6]
  Plant response rating, Blackgrass: 30
velvetleaf; [7]
  Velvetleaf plant response rating: 0
velvetleaf; [8]
  Velvetleaf plant response rating: 0
velvetleaf; [9]
  Velvetleaf plant response rating: 0
velvetleaf; [10]
  Plant response rating, Velvetleaf: 0
velvetleaf; [11]
  Plant response rating, Velvetleaf: 0
velvetleaf; [12]
  Plant response rating, Velvetleaf: 3
velvetleaf; [14]
  Velvetleaf plant response rating: 0
Purple nutsedge; [15]
  Plant response rating, Purple nutsedge: 0
Purple nutsedge; [16]
  Plant response rating, Purple nutsedge: 0
Purple nutsedge; [17]
  Purple nutsedge plant response rating: 0
Purple nutsedge; [18]
  Purple nutsedge plant response rating: 0
Purple nutsedge; Rate 250 g/ha
  Plant response rating, Purple nutsedge: 0
Purple nutsedge; Rate 500 g/ha
  Plant response rating, Purple nutsedge: 0
Wild oat; Rate 500 g/ha
  Plant response rating, Wild oat: 10
Wild oat; Rate 1000 g/ha
  Plant response rating, Wild oat: 20
bedstraw; [7]
  Bedstraw plant response rating: 0
bedstraw; [8]
  Bedstraw plant response rating: 0
bedstraw; [9]
  Bedstraw plant response rating: 0
bedstraw; [10]
  Plant response rating, Bedstraw: 0
bedstraw; [11]
  Plant response rating, Bedstraw: 0
bedstraw; [12]
  Plant response rating, Bedstraw: 0
bedstraw; [13]
  Bedstraw plant response rating: 0
bedstraw; [14]
  Bedstraw plant response rating: 0
Alexandergrass; [15]
  Plant response rating, Alexandergrass: 0
Alexandergrass; [16]
  Plant response rating, Alexandergrass: 0
Alexandergrass; [17]
  Plant response rating, Alexandergrass: 40
Alexandergrass; [18]
  Plant response rating, Alexandergrass: 50
Alexandergrass; Rate 250 g/ha
  Plant response rating, Alexandergrass: 80
Alexandergrass; Rate 500 g/ha
  Plant response rating, Alexandergrass: 90
Winter barley; Rate 250 g/ha, 0 to 100 scale
  Plant response rating, Barley (winter): 10
Winter barley; [5]
  Plant response rating, Barley (winter): 10
Winter barley; [6]
  Plant response rating, Barley (winter): 10
soybean; [7]
  Soybean plant response rating: 1
soybean; [8]
  Soybean plant response rating: 2
soybean; [9]
  Soybean plant response rating: 0
soybean; [10]
  Plant response rating, Soybean: 0
soybean; [11]
  Plant response rating, Soybean: 0
soybean; [12]
  Plant response rating, Soybean: 0
soybean; [14]
  Soybean plant response rating: 1
